In test [1] the target is T1, enzyme R39 (Actinomadura sp. R39, UniProt P39045). Kind of test: Hydrolysis of thioester-type substrate by enzyme R39 and its activation by D-amino acids. Type of test: biochemical. The settings on record: for activating effect on the thioester hydrolysis reaction by enzyme R39: thioester-type substrate of formula I; for activity of enzyme R39 on the substrate: one unit hydrolyzes 1 micromole of substrate per minute at 47° C. From the text: In other words, in the presence of this activator, the rate of hydrolysis of the substrate by enzyme R39 is 40 times higher.

Test [2] addresses T2, enzyme R39 (soluble D-alanyl-D-alanine carboxypeptidase produced by Actinomadura R39) (Actinomadura sp. R39, UniProt P39045).
T2 construct: added to milk or serum samples
Description: Enzymatic determination of penicillin G in milk with [(N-phenylacetyl-D-alanyl)thio]-acetic acid as substrate (Example 4). The settings on record: Example 4, Table IV. Type of test: biochemical. How it is done: The process is the same as in example 3, except that, after the first incubation, 120 μl of an aqueous solution containing 5 mg/ml of [(N-phenylacetyl-D-alanyl)thio]-acetic acid are added.

Test [3] addresses T2, enzyme R39 (soluble D-alanyl-D-alanine carboxypeptidase produced by Actinomadura R39). Description: Enzymatic determination of cephapirin in milk (Example 6). The test is classed as biochemical. Here is the method: The process is the same as in example 3, but the samples of 3 ml of milk contain known concentrations of cephapirin.
Test [4] deals with cells or cell parts of Bacillus stearothermiphilus. As to conditions: enzyme-tagged antibiotic, visual colorimetric method; cited from earlier work.
For test [5], the target named is T1, enzyme R39. As to conditions: about 20 μl milk, 3 picomoles enzyme R39, cited from earlier work.

Data on 14 compounds can be found in US5246830A, “Enzymatic process for the determination of β-lactam antibiotics” (Ucb Bioproducts, S.A., priority 1990, dated 1993).

T1 sequence (P39045 50-515): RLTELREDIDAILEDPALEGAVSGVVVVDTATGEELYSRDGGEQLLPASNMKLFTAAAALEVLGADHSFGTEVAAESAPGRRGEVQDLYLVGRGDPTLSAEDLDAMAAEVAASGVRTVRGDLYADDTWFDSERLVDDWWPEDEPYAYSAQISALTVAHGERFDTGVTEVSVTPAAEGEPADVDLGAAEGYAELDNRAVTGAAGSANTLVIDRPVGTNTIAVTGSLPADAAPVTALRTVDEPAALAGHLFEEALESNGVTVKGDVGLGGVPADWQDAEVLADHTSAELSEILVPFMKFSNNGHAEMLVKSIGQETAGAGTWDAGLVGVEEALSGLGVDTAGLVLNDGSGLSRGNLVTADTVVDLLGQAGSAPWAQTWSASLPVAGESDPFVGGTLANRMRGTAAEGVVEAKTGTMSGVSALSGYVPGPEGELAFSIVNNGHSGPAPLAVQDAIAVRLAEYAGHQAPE
T2 sequence (P39045 50-515): as above

As for `CC[C@@H](N)C(=O)O` [D-2-aminobutyric acid], the “activating effect on the thioester hydrolysis reaction by enzyme R39” value (from here on “activating effect … by enzyme R39”) in test [1] is recorded as “best activators”.
On the same count and under the same terms, under `C[C@@H](N)C(=O)O` [D-alanine] stands “best activators”.
Still for that read-out and setting: under `N=C(N)NCCC[C@@H](N)C(=O)O` [D-arginine] stands “best activators”; under `N[C@H](Cc1c[nH]cn1)C(=O)O` [D-histidine], “best activators”.
Same read-out and setting: under `CSCC[C@@H](N)C(=O)O` [D-methionine] stands “best activators”; under `N[C@H](Cc1ccccc1)C(=O)O` [D-phenylalanine], “best activators”.
On to `N[C@H](CO)C(=O)O` [D-serine], for which the “activating effect … by enzyme R39” value in test [1] is on record as “best activators”.
The same measure, in the same setting: the entry for `N[C@H](Cc1c[nH]c2ccccc12)C(=O)O` [D-tryptophan] is “best activators”; for `CC(C)[C@@H](N)C(=O)O` [D-valine] it is “best activators”.
Regarding `C[C@@H](NC(=O)c1ccccc1)C(=O)SCC(=O)O` [[(N-benzoyl-D-alanyl)thio]-acetic acid], the “performance as substrate for enzyme R39” value in test [1] (among thioesters of formula I) is given as “best results”. The “activity of enzyme R39 on the substrate” value in test [1] (in the absence of D-alanine) is on record as 8 units per milligram of enzyme; in test [1] (in the presence of D-alanine), 320 units per milligram of enzyme.
In the case of `C[C@@H](NC(=O)Cc1ccccc1)C(=O)SCC(=O)O` [[(N-phenylacetyl-D-alanyl)thio]-acetic acid], the “process carried out with this compound as substrate” value in test [2] is reported as “successfully”.
As to `CC(=O)OCC1=C(C(=O)O)N2C(=O)[C@@H](NC(=O)CSc3ccncc3)[C@H]2SC1` [cephapirin], the Coloration entry in test [3] (cephapirin 0.002 μg/ml in 3 ml milk) is “medium yellow”; in test [3] (cephapirin 0.003 μg/ml in 3 ml milk) it was “pale yellow”; in test [3] (cephapirin 0.004 μg/ml in 3 ml milk), “white”; in test [3] (cephapirin 0.006 μg/ml in 3 ml milk), “white”. Besides, the “cephapirin concentration in milk detected visually” value in test [3] (in 15 minutes time) stood at 0.004 µg/mL.
For `NCC(=O)O` [glycine], the “activating effect … by enzyme R39” value in test [1] is reported as “activating effect”.
With penicillin, the “penicillin concentration threshold detected in milk” value in test [4] is given as 0.05 IU/ml. The “penicillin concentration in milk quantitatively determined (spectrophotometer)” value in test [5] is listed as 0.02 I.U./ml. In addition, the “penicillin concentration in milk qualitatively determined by the visual method” value in test [5] (in less than one hour) is reported as “more than 0.09 I.U./ml”.
